Reference: patent US8691864B2, “Agents useful for reducing amyloid precursor protein and treating dementia and methods of use thereof” (priority 2000, dated 2014)

Experiments:
APP-mRNA 5′UTR = assay: CAT reporter assay with βAPP-mRNA 5′UTR in transfected U373 MG cells; format: cell-based
Description: One day prior to transfection, U373 cells were plated onto 100 mm dishes at a density of 3×10^5 cells. On the day of transfection, the cells were given 5 ml of fresh media containing 10% FBS, 2 mM glutamine in DMEM. The cells were transfected using a calcium phosphate precipitation method, as per the manufacturer's protocol and described previously (Rogers et al., 1999). Briefly, for each plate, three μg of DNA (5′UTR APP-PSV2-CAT or PSV2-CAT vector) were placed in a final volume of […] of 250 mM CaCl2. The chloramphenicol acetyl transferase (CAT) gene was used as a reporter gene. The DNA solution was slowly pipetted into an aerated, equivalent volume of 2×HeBS, pH 7.05. The resulting precipitate was allowed to stand 10-20 min at RT before its addition to the cells. After 18 h, the medium was changed and the transfected cells were left for two days before drug treatment.
The cell lysates from transfected U373 cells treated with phenserine were analyzed for their CAT activity using a colorimetric enzyme immunoassay (Boehringer Mannheim, Indianapolis, Ind.). Briefly, 50 μg of protein (an amount previously found to lie within the linear range of the assay) were placed onto anti-CAT coated microtiter plate modules and allowed to bind for 1 h at 37° C. The plates were washed thoroughly after each step. Next, a digoxigenin-labeled anti-CAT antibody was added to the samples and incubated for 1 h at 37° C. A subsequent antibody, anti-digoxigenin conjugated to peroxidase, was placed in the wells for another hour under similar conditions. Finally peroxidase substrate, ABTS, was added to each well and the absorbance of each sample was measured at a wavelength of 405 nm.
The plasmid PSV2-APP-CatD was provided by Dr. Rogers (1999). […]
Quantitation of the fold stimulus of CAT gene activity conferred by the 5′ UTR βAPP-mRNA was measured. ELISA readings of CAT expression were measured at 405 nm. […] In other assays where the time of treatment was extended to 48 hours, only a 2-fold decrease in CAT reporter mRNA was detected with phenserine treatment.

[1] = in vivo toxicity, i.p. administration to rodents
Description: This persisted for an hour and is related to central cholinergic overdrive. […] Animals were incapacitated at 20 mg/kg (N=3 per dose group), and 2 were killed when moribund.

Aβ1-40 = Aβ1-40 levels in cerebral cortex of transgenic mice, ELISA; format: in vivo; details: formic acid extraction, 3 weeks daily
Description: Greater reductions could be achieved, but, as previously reported, doses of >5 mg/kg produce cholinergic side effects for the (−)-enantiomer but not for the (+)-enantiomer.
Samples of cerebral cortex from the transgenic mice then were analyzed for β amyloid peptide (Aβ) levels. Specifically, Aβ1-40 and Aβ1-42 levels, following formic acid extraction, were determined by ELISA assay (Suzuki et al., 1994).

With `CN1CC[C@@]2(C)c3cc(OC(=O)Nc4ccccc4)ccc3N(C)[C@@H]12` [(−)-phenserine] the “CAT activity in pSV2 CAT (parental vector) transfected cells” value (APP-mRNA 5′UTR; control vector, all time points) was “no inhibition”, the “decrease of CAT gene activity conferred by the 5′ UTR βAPP-mRNA” value (APP-mRNA 5′UTR; pSV2 (APP) CAT transfected U373, 50 μM, 1 hour) was 4 fold and the “decrease in CAT activity” value (APP-mRNA 5′UTR; pSV2 (APP) CAT transfected U373, treatment extended to 48 hours) was 2 fold. For the same compound, the clinical signs ([1]; 5 mg/kg) was “a fine tremor is observed”, the clinical signs ([1]; 7.5 mg/kg) was “Tremor together with symptoms of peripheral cholinergic overdrive” and the “duration of tremor and peripheral cholinergic symptoms” value ([1]; 7.5 mg/kg) was about 3 h. For the same compound, the clinical signs ([1]; 20 mg/kg) was “incapacitated” and the “reduction of Aβ1-40 levels” value (Aβ1-40) was 68%.
